Assay results published in patent US20250122174A1 (Shenzhen Yuanli Shenwan Innovative Medicine Co., Ltd., priority 2022, published 2025).

Target: HPK1 (Homo sapiens (Human), UniProt Q92918)
Assay: HPK1 Inhibition Assay (ADP-Glo kinase assay)
Assay type: biochemical
Settings: ATP 10 μM
How it was run: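 ADP-Glo luminescence read-out after 1 h room-temperature kinase reaction with 10 μM ATP and 0.1 μg/ml MBP. Recombinant human HPK1 at 7.5 ng/μl; buffer 40 mM Tris pH 7.5, 20 mM MgCl2. Compounds serially diluted 5-fold over 10 points from 10 mM DMSO stock.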

HPK1, sequence (Q92918 1-346 limits assumed): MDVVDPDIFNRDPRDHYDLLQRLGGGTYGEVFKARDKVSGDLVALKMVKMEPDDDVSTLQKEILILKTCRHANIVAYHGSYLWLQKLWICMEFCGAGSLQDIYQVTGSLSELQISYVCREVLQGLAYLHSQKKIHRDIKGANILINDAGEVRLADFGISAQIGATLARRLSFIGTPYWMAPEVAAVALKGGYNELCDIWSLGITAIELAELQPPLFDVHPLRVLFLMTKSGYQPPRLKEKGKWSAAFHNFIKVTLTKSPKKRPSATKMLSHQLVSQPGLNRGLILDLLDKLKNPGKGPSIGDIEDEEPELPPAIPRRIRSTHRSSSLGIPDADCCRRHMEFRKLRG

Row | Compound | IC50
1 | CC[C@@H]1CN(c2c(NC(=O)c3ccc(=O)n(-c4c(F)cccc4F)n3)cc(F)c3c2cnn3C(C)C)C[C@@H]1N [Example 216, N-(4-((3R,4R)-3-amino-4-ethylpyrrolidin-1-yl)-7-fluoro-1-isopropyl-1H-indazol-5-yl)-1-(2,6-difluorophenyl)-6-oxo-1,6-dihydropyridazine-3-carboxamide] | < 100 nM
2 | CC(C)n1ncc2c(N3CCC(N)CC3)c(NC(=O)c3ccc(=O)n(-c4c(F)cccc4F)n3)cc(F)c21 [Example 217, N-(4-(4-aminopiperidin-1-yl)-7-fluoro-1-isopropyl-1H-indazol-5-yl)-1-(2,6-difluorophenyl)-6-oxo-1,6-dihydropyridazine-3-carboxamide] | < 100 nM
3 | Cc1nn(C(C)C)c2c(F)cc(NC(=O)c3ccc(=O)n(-c4c(F)cccc4F)n3)c(N3C[C@@H](C)[C@@H](N)C3)c12 [Example 218, N-(4-((3R,4R)-3-amino-4-methylpyrrolidin-1-yl)-7-fluoro-1-isopropyl-3-methyl-1H-indazol-5-yl)-1-(2,6-difluorophenyl)-6-oxo-1,6-dihydropyridazine-3-carboxamide] | < 100 nM
4 | CC(C)n1ncc2c(N3C[C@H]4CNC[C@H]4C3)c(NC(=O)c3ccc(=O)n(-c4c(F)cccc4F)n3)cc(F)c21 [Example 219, 1-(2,6-difluorophenyl)-N-(7-fluoro-4-((3aR,6aS)-hexahydropyrrolo[3,4-c]pyrrol-2(1H)-yl)-1-isopropyl-1H-indazol-5-yl)-6-oxo-1,6-dihydropyridazine-3-carboxamide] | < 100 nM
5 | CC(C)n1cc2c(N3CC[C@@](C)(N)C3)c(NC(=O)c3ccc(=O)n(-c4c(F)cccc4F)n3)ccc2n1 [Example 220, (R)—N-(4-(3-amino-3-methylpyrrolidin-1-yl)-2-isopropyl-2H-indazol-5-yl)-1-(2,6-difluorophenyl)-6-oxo-1,6-dihydropyridazine-3-carboxamide] | < 100 nM
6 | CC(C)n1cc2c(N3CC[C@@H](CN)C3)c(NC(=O)c3ccc(=O)n(-c4c(F)cccc4F)n3)cc(F)c2n1 [Example 221, (S)-N-(4-(3-(aminomethyl)pyrrolidin-1-yl)-7-fluoro-2-isopropyl-2H-indazol-5-yl)-1-(2,6-difluorophenyl)-6-oxo-1,6-dihydropyridazine-3-carboxamide] | < 100 nM
7 | CC(C)n1cc2c(N3CC[C@@H](N)C3)c(NC(=O)c3ccc(=O)n(-c4c(F)cccc4F)n3)cc(F)c2n1 [Example 222, (R)-N-(4-(3-aminopyrrolidin-1-yl)-7-fluoro-2-isopropyl-2H-indazol-5-yl)-1-(2,6-difluorophenyl)-6-oxo-1,6-dihydropyridazine-3-carboxamide] | < 100 nM
8 | CC(C)n1nc2c(F)cc(NC(=O)c3ccc(=O)n(-c4c(F)cccc4F)n3)c(N3CC[C@@H](N)C3)c2c1Cl [Example 223, (R)-N-(4-(3-aminopyrrolidin-1-yl)-3-chloro-7-fluoro-2-isopropyl-2H-indazol-5-yl)-1-(2,6-difluorophenyl)-6-oxo-1,6-dihydropyridazine-3-carboxamide] | < 100 nM
9 | CC(C)n1cc2c(N3C[C@@H](C)[C@@H](N)C3)c(NC(=O)c3ccc(=O)n(-c4c(F)cccc4F)n3)ccc2n1 [Example 224, N-(4-((3R,4R)-3-amino-4-methylpyrrolidin-1-yl)-2-isopropyl-2H-indazol-5-yl)-1-(2,6-difluorophenyl)-6-oxo-1,6-dihydropyridazine-3-carboxamide] | < 100 nM
10 | CC(C)n1cc2c(N3CCC[C@@H]3CN)c(NC(=O)c3ccc(=O)n(-c4c(F)cccc4F)n3)ccc2n1 [Example 225, (R)-N-(4-(2-(aminomethyl)pyrrolidin-1-yl)-2-isopropyl-2H-indazol-5-yl)-1-(2,6-difluorophenyl)-6-oxo-1,6-dihydropyridazine-3-carboxamide] | < 100 nM
11 | Cc1cc(NC(=O)c2ccc(=O)n(-c3c(F)cccc3F)n2)c(N2CC[C@@H](N)C2)c2cn(C(C)C)nc12 [Example 226, (R)-N-(4-(3-aminopyrrolidin-1-yl)-2-isopropyl-7-methyl-2H-indazol-5-yl)-1-(2,6-difluorophenyl)-6-oxo-1,6-dihydropyridazine-3-carboxamide] | < 100 nM
12 | CC(C)n1cc2c(N3C[C@H](N)C(C)(C)C3)c(NC(=O)c3ccc(=O)n(-c4c(F)cccc4F)n3)ccc2n1 [Example 227, (R)-N-(4-(4-amino-3,3-dimethylpyrrolidin-1-yl)-2-isopropyl-2H-indazol-5-yl)-1-(2,6-difluorophenyl)-6-oxo-1,6-dihydropyridazine-3-carboxamide] | < 100 nM
13 | CC(C)n1cc2c(N3C[C@@H](N)C(C)(C)C3)c(NC(=O)c3ccc(=O)n(-c4c(F)cccc4F)n3)ccc2n1 [Example 228, (S)-N-(4-(4-amino-3,3-dimethylpyrrolidin-1-yl)-2-isopropyl-2H-indazol-5-yl)-1-(2,6-difluorophenyl)-6-oxo-1,6-dihydropyridazine-3-carboxamide] | < 100 nM
14 | CC(C)n1cc2c(N3C[C@H](N)C4(CC4)C3)c(NC(=O)c3ccc(=O)n(-c4c(F)cccc4F)n3)ccc2n1 [Example 229] | < 100 nM
15 | CC(C)n1cc2c(N3CCC(N)CC3)c(NC(=O)c3ccc(=O)n(-c4c(F)cccc4F)n3)ccc2n1 [Example 230, N-(4-(4-aminopiperidin-1-yl)-2-isopropyl-2H-indazol-5-yl)-1-(2,6-difluorophenyl)-6-oxo-1,6-dihydropyridazine-3-carboxamide] | < 100 nM
16 | CC(C)n1cc2c(N3C[C@H](C)[C@@H](N)C3)c(NC(=O)c3ccc(=O)n(-c4c(F)cccc4F)n3)ccc2n1 [Example 231, N-(4-((3R,4S)-3-amino-4-methylpyrrolidin-1-yl)-2-isopropyl-2H-indazol-5-yl)-1-(2,6-difluorophenyl)-6-oxo-1,6-dihydropyridazine-3-carboxamide] | < 100 nM
17 | CC(C)n1cc2c(N3CCC[C@@H](N)C3)c(NC(=O)c3ccc(=O)n(-c4c(F)cccc4F)n3)ccc2n1 [Example 232, (R)-N-(4-(3-aminopiperidin-1-yl)-2-isopropyl-2H-indazol-5-yl)-1-(2,6-difluorophenyl)-6-oxo-1,6-dihydropyridazine-3-carboxamide] | < 100 nM
18 | CC(C)n1cc2c(N3C[C@@H]4C[C@H]3CN4)c(NC(=O)c3ccc(=O)n(-c4c(F)cccc4F)n3)cc(F)c2n1 [Example 233, N-(4-((1S,4S)-2,5-diazabicyclo[2.2.1]heptan-2-yl)-7-fluoro-2-isopropyl-2H-indazol-5-yl)-1-(2,6-difluorophenyl)-6-oxo-1,6-dihydropyridazine-3-carboxamide] | < 100 nM
19 | C[C@@H]1CN(c2c(NC(=O)c3ccc(=O)n(-c4c(F)cccc4F)n3)ccc3nn(C(C)(C)C)cc23)C[C@@H]1N [Example 234, N-[4-[(3R,4R)-3-amino-4-methyl-pyrrolidin-1-yl]-2-tert-butyl-indazol-5-yl]-1-(2,6-difluorophenyl)-6-oxo-pyridazine-3-carboxamide] | < 100 nM
20 | CC(C)(C)n1cc2c(N3C[C@H](N)C4(CC4)C3)c(NC(=O)c3ccc(=O)n(-c4c(F)cccc4F)n3)ccc2n1 [Example 235, (R)-N-(4-(7-amino-5-azaspiro[2.4]heptan-5-yl)-2-(tert-butyl)-2H-indazol-5-yl)-1-(2,6-difluorophenyl)-6-oxo-1,6-dihydropyridazine-3-carboxamide] | < 100 nM
21 | CC1(C)CN(c2c(NC(=O)c3ccc(=O)n(-c4c(F)cccc4F)n3)ccc3nn(C(C)(C)C)cc23)C[C@@H]1N [Example 236, (R)-N-(4-(4-amino-3,3-dimethylpyrrolidin-1-yl)-2-(tert-butyl)-2H-indazol-5-yl)-1-(2,6-difluorophenyl)-6-oxo-1,6-dihydropyridazine-3-carboxamide] | < 100 nM
22 | CC1(C)CN(c2c(NC(=O)c3ccc(=O)n(-c4c(F)cccc4F)n3)ccc3nn(C(C)(C)C)cc23)C[C@H]1N [Example 237, (S)-N-(4-(4-amino-3,3-dimethylpyrrolidin-1-yl)-2-(tert-butyl)-2H-indazol-5-yl)-1-(2,6-difluorophenyl)-6-oxo-1,6-dihydropyridazine-3-carboxamide] | < 100 nM
23 | C[C@H]1CN(c2c(NC(=O)c3ccc(=O)n(-c4c(F)cccc4F)n3)ccc3nn(C(C)(C)C)cc23)C[C@@H]1N [Example 238, N-(4-((3R,4S)-3-amino-4-methylpyrrolidin-1-yl)-2-(tert-butyl)-2H-indazol-5-yl)-1-(2,6-difluorophenyl)-6-oxo-1,6-dihydropyridazine-3-carboxamide] | < 100 nM
24 | CC(C)(C)n1cc2c(N3CCC[C@@H](N)C3)c(NC(=O)c3ccc(=O)n(-c4c(F)cccc4F)n3)ccc2n1 [Example 239, (R)-N-(4-(3-aminopiperidin-1-yl)-2-(tert-butyl)-2H-indazol-5-yl)-1-(2,6-difluorophenyl)-6-oxo-1,6-dihydropyridazine-3-carboxamide] | < 100 nM
25 | CC(C)(C)n1cc2c(N3CCC(N)CC3)c(NC(=O)c3ccc(=O)n(-c4c(F)cccc4F)n3)ccc2n1 [Example 240, N-(4-(4-aminopiperidin-1-yl)-2-(tert-butyl)-2H-indazol-5-yl)-1-(2,6-difluorophenyl)-6-oxo-1,6-dihydropyridazine-3-carboxamide] | < 100 nM
26 | CC(C)(C)n1cc2c(N3CC[C@@H](N)C3)c(NC(=O)c3ccc(=O)n(-c4c(F)cccc4F)n3)ccc2n1 [Example 241, (R)-N-(4-(3-aminopyrrolidin-1-yl)-2-(tert-butyl)-2H-indazol-5-yl)-1-(2,6-difluorophenyl)-6-oxo-1,6-dihydropyridazine-3-carboxamide] | < 100 nM
27 | CC(C)(C)n1cc2c(N3C[C@@H](N)C4(CC4)C3)c(NC(=O)c3ccc(=O)n(-c4c(F)cccc4F)n3)ccc2n1 [Example 242, (S)-N-(4-(7-amino-5-azaspiro[2.4]heptan-5-yl)-2-(tert-butyl)-2H-indazol-5-yl)-1-(2,6-difluorophenyl)-6-oxo-1,6-dihydropyridazine-3-carboxamide] | < 100 nM
